Reference: PMC9284491 (Nature Communications, 2022)
Entries after “also recorded” stand apart in the source; their conditions may differ.

Test: Treatment-emergent adverse events (MedDRA, NCI-CTCAE v4.03), safety populations
Assay type: in vivo, human
Experimental: Overall safety in Parts A and B was assessed by tabulating TEAEs, coded using the Medical Dictionary for Regulatory Activities (MedDRA) version 22.1, and graded according to NCI-CTCAE v4.03 criteria. TEAEs were classified as related or unrelated to amcenestrant therapy based upon the local investigating physician’s clinical judgment. The safety population included all patients exposed to at least one dose of the study treatment. Results were analyzed using descriptive statistics.

Structure (SMILES): O=C(O)c1ccc2c(c1)CCCC(c1ccc(Cl)cc1Cl)=C2c1ccc(O[C@H]2CCN(CCCF)C2)cc1 [amcenestrant, 6-(2,4-Dichlorophenyl)−5-[4-[(3S)−1-(3-fluoropropyl)pyrrolidin-3-yl]oxyphenyl]−8,9-dihydro-7H-benzo[7]annulene-2-carboxylic acid]
- Headache, Treatment-related TEAEs, All Grades (Part B, 400 mg QD (N = 49)): 0 n (%)
- Headache, Treatment-related TEAEs, Grade 1 (Part B, 400 mg QD (N = 49)): 0 n (%)
- Headache, Treatment-related TEAEs, Grade 2 (Part B, 400 mg QD (N = 49)): 0 n (%)
- Headache, Treatment-related TEAEs, Grade ≥3 (Part B, 400 mg QD (N = 49)): 0 n (%)
- Hot flush, TEAEs, All grades (Part B, 400 mg QD (N = 49)): 7 (14.3) n (%)
- Hot flush, TEAEs, Grade 1 (Part B, 400 mg QD (N = 49)): 5 (10.2) n (%)
- Hot flush, TEAEs, Grade 2 (Part B, 400 mg QD (N = 49)): 2 (4.1) n (%)
- Hot flush, TEAEs, Grade ≥3 (Part B, 400 mg QD (N = 49)): 0 n (%)
- Hot flush, Treatment-related TEAEs, All Grades (Part B, 400 mg QD (N = 49)): 5 (10.2) n (%)
- Hot flush, Treatment-related TEAEs, Grade 1 (Part B, 400 mg QD (N = 49)): 5 (10.2) n (%)
- Hot flush, Treatment-related TEAEs, Grade 2 (Part B, 400 mg QD (N = 49)): 0 n (%)
- Hot flush, Treatment-related TEAEs, Grade ≥3 (Part B, 400 mg QD (N = 49)): 0 n (%)
- Hypertension, TEAEs, All grades (Part B, 400 mg QD (N = 49)): 4 (8.2) n (%)
- Hypertension, TEAEs, Grade 1 (Part B, 400 mg QD (N = 49)): 0 n (%)
- Hypertension, TEAEs, Grade 2 (Part B, 400 mg QD (N = 49)): 4 (8.2) n (%)
- Hypertension, TEAEs, Grade ≥3 (Part B, 400 mg QD (N = 49)): 0 n (%)
- Hypertension, Treatment-related TEAEs, All Grades (Part B, 400 mg QD (N = 49)): 1 (2.0) n (%)
- Hypertension, Treatment-related TEAEs, Grade 1 (Part B, 400 mg QD (N = 49)): 0 n (%)
- Hypertension, Treatment-related TEAEs, Grade 2 (Part B, 400 mg QD (N = 49)): 1 (2.0) n (%)
- Hypertension, Treatment-related TEAEs, Grade ≥3 (Part B, 400 mg QD (N = 49)): 0 n (%)
- Nasopharyngitis, TEAEs, All grades (Part B, 400 mg QD (N = 49)): 3 (6.1) n (%)
- Nasopharyngitis, TEAEs, Grade 1 (Part B, 400 mg QD (N = 49)): 3 (6.1) n (%)
- Nasopharyngitis, TEAEs, Grade 2 (Part B, 400 mg QD (N = 49)): 0 n (%)
- Nasopharyngitis, TEAEs, Grade ≥3 (Part B, 400 mg QD (N = 49)): 0 n (%)
- Nasopharyngitis, Treatment-related TEAEs, All Grades (Part B, 400 mg QD (N = 49)): 0 n (%)
- Nasopharyngitis, Treatment-related TEAEs, Grade 1 (Part B, 400 mg QD (N = 49)): 0 n (%)
- Nasopharyngitis, Treatment-related TEAEs, Grade 2 (Part B, 400 mg QD (N = 49)): 0 n (%)
- Nasopharyngitis, Treatment-related TEAEs, Grade ≥3 (Part B, 400 mg QD (N = 49)): 0 n (%)
- Nausea, TEAEs, All grades (Part B, 400 mg QD (N = 49)): 11 (22.4) n (%)
- Nausea, TEAEs, Grade 1 (Part B, 400 mg QD (N = 49)): 9 (18.4) n (%)
- Nausea, TEAEs, Grade 2 (Part B, 400 mg QD (N = 49)): 1 (2.0) n (%)
- Nausea, TEAEs, Grade ≥3 (Part B, 400 mg QD (N = 49)): 1 (2.0) n (%)
- Nausea, Treatment-related TEAEs, All Grades (Part B, 400 mg QD (N = 49)): 2 (4.1) n (%)
- Nausea, Treatment-related TEAEs, Grade 1 (Part B, 400 mg QD (N = 49)): 2 (4.1) n (%)
- Nausea, Treatment-related TEAEs, Grade 2 (Part B, 400 mg QD (N = 49)): 0 n (%)
- Nausea, Treatment-related TEAEs, Grade ≥3 (Part B, 400 mg QD (N = 49)): 0 n (%)
- Pain in extremity, TEAEs, All grades (Part B, 400 mg QD (N = 49)): 3 (6.1) n (%)
- Pain in extremity, TEAEs, Grade 1 (Part B, 400 mg QD (N = 49)): 2 (4.1) n (%)
- Pain in extremity, TEAEs, Grade 2 (Part B, 400 mg QD (N = 49)): 1 (2.0) n (%)
- Pain in extremity, Treatment-related TEAEs, All Grades (Part B, 400 mg QD (N = 49)): 0 n (%)
- Pain in extremity, Treatment-related TEAEs, Grade 1 (Part B, 400 mg QD (N = 49)): 0 n (%)
- Pain in extremity, Treatment-related TEAEs, Grade 2 (Part B, 400 mg QD (N = 49)): 0 n (%)
- Pain in extremity, Treatment-related TEAEs, Grade ≥3 (Part B, 400 mg QD (N = 49)): 0 n (%)
- Paresthesia, TEAEs, All grades (Part B, 400 mg QD (N = 49)): 3 (6.1) n (%)
- Paresthesia, TEAEs, Grade 1 (Part B, 400 mg QD (N = 49)): 3 (6.1) n (%)
- Paresthesia, TEAEs, Grade 2 (Part B, 400 mg QD (N = 49)): 0 n (%)
- Paresthesia, TEAEs, Grade ≥3 (Part B, 400 mg QD (N = 49)): 0 n (%)
- Paresthesia, Treatment-related TEAEs, All Grades (Part B, 400 mg QD (N = 49)): 1 (2.0) n (%)
- Paresthesia, Treatment-related TEAEs, Grade 1 (Part B, 400 mg QD (N = 49)): 1 (2.0) n (%)
- Paresthesia, Treatment-related TEAEs, Grade 2 (Part B, 400 mg QD (N = 49)): 0 n (%)
- Paresthesia, Treatment-related TEAEs, Grade ≥3 (Part B, 400 mg QD (N = 49)): 0 n (%)
- Pyrexia, TEAEs, All grades (Part B, 400 mg QD (N = 49)): 4 (8.2) n (%)
- Pyrexia, TEAEs, Grade 1 (Part B, 400 mg QD (N = 49)): 3 (6.1) n (%)
- Pyrexia, TEAEs, Grade 2 (Part B, 400 mg QD (N = 49)): 1 (2.0) n (%)
- Pyrexia, TEAEs, Grade ≥3 (Part B, 400 mg QD (N = 49)): 0 n (%)
- Pyrexia, Treatment-related TEAEs, All Grades (Part B, 400 mg QD (N = 49)): 0 n (%)
- Pyrexia, Treatment-related TEAEs, Grade 1 (Part B, 400 mg QD (N = 49)): 0 n (%)
- Pyrexia, Treatment-related TEAEs, Grade 2 (Part B, 400 mg QD (N = 49)): 0 n (%)
- Pyrexia, Treatment-related TEAEs, Grade ≥3 (Part B, 400 mg QD (N = 49)): 0 n (%)
- Rhinitis allergic, TEAEs, All grades (Part B, 400 mg QD (N = 49)): 3 (6.1) n (%)
- Rhinitis allergic, TEAEs, Grade 1 (Part B, 400 mg QD (N = 49)): 2 (4.1) n (%)
- Rhinitis allergic, TEAEs, Grade 2 (Part B, 400 mg QD (N = 49)): 1 (2.0) n (%)
- Rhinitis allergic, TEAEs, Grade ≥3 (Part B, 400 mg QD (N = 49)): 0 n (%)
- Rhinitis allergic, Treatment-related TEAEs, All Grades (Part B, 400 mg QD (N = 49)): 0 n (%)
- Rhinitis allergic, Treatment-related TEAEs, Grade 1 (Part B, 400 mg QD (N = 49)): 0 n (%)
- Rhinitis allergic, Treatment-related TEAEs, Grade 2 (Part B, 400 mg QD (N = 49)): 0 n (%)
- Rhinitis allergic, Treatment-related TEAEs, Grade ≥3 (Part B, 400 mg QD (N = 49)): 0 n (%)
- Urinary tract infection, TEAEs, All grades (Part B, 400 mg QD (N = 49)): 5 (10.2) n (%)
- Urinary tract infection, TEAEs, Grade 1 (Part B, 400 mg QD (N = 49)): 0 n (%)
- Urinary tract infection, TEAEs, Grade 2 (Part B, 400 mg QD (N = 49)): 5 (10.2) n (%)
- Urinary tract infection, TEAEs, Grade ≥3 (Part B, 400 mg QD (N = 49)): 0 n (%)
- Urinary tract infection, Treatment-related TEAEs, All Grades (Part B, 400 mg QD (N = 49)): 1 (2.0) n (%)
- Urinary tract infection, Treatment-related TEAEs, Grade 1 (Part B, 400 mg QD (N = 49)): 0 n (%)
- Urinary tract infection, Treatment-related TEAEs, Grade 2 (Part B, 400 mg QD (N = 49)): 1 (2.0) n (%)
- Urinary tract infection, Treatment-related TEAEs, Grade ≥3 (Part B, 400 mg QD (N = 49)): 0 n (%)
- Vomiting, TEAEs, All grades (Part B, 400 mg QD (N = 49)): 14 (28.6) n (%)
- Vomiting, TEAEs, Grade 1 (Part B, 400 mg QD (N = 49)): 10 (20.4) n (%)
- Vomiting, TEAEs, Grade 2 (Part B, 400 mg QD (N = 49)): 3 (6.1) n (%)
- Vomiting, TEAEs, Grade ≥3 (Part B, 400 mg QD (N = 49)): 1 (2.0) n (%)
- Vomiting, Treatment-related TEAEs, All Grades (Part B, 400 mg QD (N = 49)): 4 (8.2) n (%)
- Vomiting, Treatment-related TEAEs, Grade 1 (Part B, 400 mg QD (N = 49)): 4 (8.2) n (%)
- Vomiting, Treatment-related TEAEs, Grade 2 (Part B, 400 mg QD (N = 49)): 0 n (%)
- Vomiting, Treatment-related TEAEs, Grade ≥3 (Part B, 400 mg QD (N = 49)): 0 n (%)
- treatment-related TEAE arthralgia, patients (Part B, 400 mg QD (n = 49)): 8.2%
- treatment-related TEAE constipation, patients (Part B, 400 mg QD (n = 49)): 6.1%
- treatment-related TEAE gastroesophageal reflux disease, patients (Part B, 400 mg QD (n = 49)): 6.1%
- treatment-related TEAE hot flush, patients (Part B, 400 mg QD (n = 49)): 10.2%
- treatment-related TEAE vomiting, patients (Part B, 400 mg QD (n = 49)): 8.2%
- patients with serious TEAEs (Part B, 13/49): 26.5%
- patients with at least one Grade ≥3 TEAE (Part B, 16/49, none considered related to amcenestrant): 32.7%
- cardiac non-treatment-related TEAE (Part B, Grade 1 sinus bradycardia): One cardiac non-treatment-related TEAE was reported
- Grade ≥3 treatment-related adverse events (Parts A and B): No Grade ≥3 treatment-related adverse events; also recorded: no treatment-related TEAEs of Grade ≥3 occurred
- clinically significant cardiac or eye safety findings (Parts A and B): no clinically significant cardiac or eye safety findings were observed
